Reference: ChEMBL document CHEMBL3044887, “The antifungal activity of widdrol and its biotransformation by Colletotrichum gloeosporioides (penz.) Penz. & Sacc. and Botrytis cinerea Pers.: Fr” (2006)
Calls of active or inactive are those of the source. The rule behind the calls is not given here.

Assays:
[1] = tested on: Botrytis cinerea; assay: Antifungal activity against Botryotinia fuckeliana 2100 assessed as inhibition of mycelial growth at 100 ppm measured after 6 days; type: functional
[2] = tested on: Botrytis cinerea; assay: Antifungal activity against Botryotinia fuckeliana 2100 assessed as inhibition of mycelial growth at 200 ppm measured after 6 days; type: functional; details: Botrytis cinerea, 2100, 144 h; read-out: GI
[3] = tested on: Colletotrichum gloeosporioides; assay: Antifungal activity against Colletotrichum gloeosporioides 20122 assessed as inhibition of mycelial growth at => 100 ppm measured after 24 to 144 hr; type: functional, organism-based

Row | SMILES | growth inhibition (GI) [1] | also measured
1 | C[C@@]1(O)CC=C2[C@@](C)(CCC[C@@]2(C)CO)CC1 | inactive | 
2 | CC1(C)C2=CC[C@@](C)(O)CC[C@]2(C)CC[C@H]1O | inactive | 
3 | CC1(C)CC[C@@H]2O[C@]13[C@H](O)C[C@@](C)(O)CC[C@]23C | inactive | 
4 | CC1(C)CCC[C@@]2(C)CC[C@](C)(O)CC=C12 [WIDDROL] |  | inhibition of growth at 200 ppm [2]: 70.7%; inhibition of growth at 100 ppm ([1]; Botrytis cinerea, 2100, 144 h, read-out: GI): 60%; growth inhibition (GI) [3]: inactive
5 | CC1(C)C(=O)CC[C@@]2(C)CC[C@](C)(O)CC=C12 | inactive | 
6 | CC1(C)C2=CC[C@@](C)(O)CC[C@]2(C)CC[C@@H]1O | inactive | 
